Legend:
[1] = test system: ER Y537S, ER D538G, ER-YAP1, ER-PCDH11X condensates with MED1; assay: In vitro droplet formation assay, mutant ER GFP fusion proteins and MED1; format: biochemical; conditions: all four mutant ER proteins; ligand 100 uM
Method: Recombinant GFP or mCherry fusion proteins were concentrated and desalted to an appropriate protein concentration and 125 mM NaCl using Amicon Ultra centrifugal filters (30K MWCO, Millipore). Recombinant proteins were added to solutions at varying concentrations with indicated final salt and 10% PEG-8000 as crowding agent in Droplet Formation Buffer (50 mM Tris-HCl pH 7.5, 10% glycerol, 1 mM DTT). The protein solution was immediately loaded onto a homemade chamber comprising a glass slide with a coverslip attached by two parallel strips of double-sided tape. Slides were then imaged with an Andor confocal microscope with a 150× objective. Unless indicated, images presented are of droplets settled on the glass coverslip. […] One microliter of this concentrated stock was used in a 10 uL droplet formation reaction to achieve a final concentration of 100 uM. To calculate enrichment for the in vitro droplet assay, droplets were defined as a region of interest in FIJI by the MED1 scaffold channel, and the maximum signal of the ER client within that droplet was determined. Alternatively, maximum signal of MED1 was measured. In all cases, the maximum signal was divided by the background client signal in the image to generate a Cin/out.

OCT4 (FKBP-tagged) [2] = molecular target: T1, OCT4 (FKBP-tagged) (Mus musculus, UniProt P20263+Q8C7D2); assay: MED1 IF with DNA FISH at Nanog after OCT4 degradation; format: cell-based; conditions: dTag versus DMSO
T1 construct: an ESC line bearing endogenous knock-in of DNA encoding the FKBP protein fused to OCT4; HA (C); endogenous in cells; host or cells: V6.5 mouse ES cells (Med1-mEGFP background), homozygous Oct4-FKBP knock-in
Method: Immunofluorescence was performed as previously above. After incubating the cells with the secondary antibodies, cells were washed three times in PBS for 5 min at RT, fixed with 4% PFA in PBS for 10 min and washed three times in PBS. Cells were incubated in 70% ethanol, 85% ethanol and then 100% ethanol for 1 minute at RT. Probe hybridization mixture was made mixing 7 μL of FISH Hybridization Buffer (Agilent G9400A), 1 μl of FISH probes (see below for region) and 2 μL of water. 5 μL of mixture was added on a slide and coverslip was placed on top (cell-side toward the hybridization mixture). Coverslip was sealed using rubber cement. Once rubber cement solidified, genomic DNA and probes were denatured at 78° C. for 5 minutes and slides were incubated at 16° C. in the dark O/N. The coverslip was removed from slide and incubated in pre-warmed Wash buffer 1 (Agilent, G9401A) at 73° C. for 2 minutes and in Wash Buffer 2 (Agilent, G9402A) for 1 minute at RT. […]
For analysis of RNA FISH with immunofluorescence custom in-house MATLAB™ scripts were written to process and analyze 3D image data gathered in FISH (RNA/DNA) and IF channels. […] The IF signal centered at FISH foci for each FISH and IF pair are then combined and an average intensity projection is calculated, providing averaged data for IF signal intensity within a l×l square centered at FISH foci. […]

OCT4 (FKBP-tagged) [3] = molecular target: T1, OCT4 (FKBP-tagged); assay: Western blot after OCT4 degradation in OCT4 degron line; format: cell-based; conditions: dTag versus DMSO
Method: Cells were lysed in Cell Lytic M (Sigma-Aldrich C2978) with protease inhibitors (Roche, 11697498001). Lysate was run on a 3%-8% Tris-acetate gel or 10% Bis-Tris gel or 3-8% Bis-Tris gels at 80 V for ˜2 hrs, followed by 120 V until dye front reached the end of the gel. Protein was then wet transferred to a 0.45 μm PVDF membrane (Millipore, IPVH00010) in ice-cold transfer buffer (25 mM Tris, 192 mM glycine, 10% methanol) at 300 mA for 2 hours at 4° C. After transfer the membrane was blocked with 5% non-fat milk in TBS for 1 hour at room temperature, shaking. Membrane was then incubated with 1:1,000 of the indicated antibody (Table S4) diluted in 5% non-fat milk in TBST and incubated overnight at 4° C., with shaking. In the morning, the membrane was washed three times with TBST for 5 minutes at room temperature shaking for each wash. Membrane was incubated with 1:5,000 secondary antibodies for 1 hr at RT and washed three times in TBST for 5 minutes. Membranes were developed with ECL substrate (Thermo Scientific, 34080) and imaged using a CCD camera or exposed using film or with high sensitivity ECL.
The CRISPR/Cas9 system was used to genetically engineer ESC lines. Target-specific oligonucleotides were cloned into a plasmid carrying a codon-optimized version of Cas9 with GFP (gift from R. Jaenisch). […]

T1 sequence (P20263 with tags, fused parts or gaps): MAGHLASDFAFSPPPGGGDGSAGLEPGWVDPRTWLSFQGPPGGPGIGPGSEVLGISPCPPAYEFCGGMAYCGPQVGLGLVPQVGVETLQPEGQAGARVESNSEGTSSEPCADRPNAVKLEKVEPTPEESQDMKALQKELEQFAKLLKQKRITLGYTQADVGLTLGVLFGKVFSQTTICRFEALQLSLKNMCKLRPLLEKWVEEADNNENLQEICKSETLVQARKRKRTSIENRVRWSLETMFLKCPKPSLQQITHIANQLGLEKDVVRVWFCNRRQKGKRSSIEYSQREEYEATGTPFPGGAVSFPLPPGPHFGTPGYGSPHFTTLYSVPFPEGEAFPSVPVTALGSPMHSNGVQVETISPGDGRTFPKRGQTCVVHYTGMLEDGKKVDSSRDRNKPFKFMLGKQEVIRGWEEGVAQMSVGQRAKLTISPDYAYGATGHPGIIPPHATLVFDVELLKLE
T1 sequence (Q8C7D2 whole entry, the tested form may be a part): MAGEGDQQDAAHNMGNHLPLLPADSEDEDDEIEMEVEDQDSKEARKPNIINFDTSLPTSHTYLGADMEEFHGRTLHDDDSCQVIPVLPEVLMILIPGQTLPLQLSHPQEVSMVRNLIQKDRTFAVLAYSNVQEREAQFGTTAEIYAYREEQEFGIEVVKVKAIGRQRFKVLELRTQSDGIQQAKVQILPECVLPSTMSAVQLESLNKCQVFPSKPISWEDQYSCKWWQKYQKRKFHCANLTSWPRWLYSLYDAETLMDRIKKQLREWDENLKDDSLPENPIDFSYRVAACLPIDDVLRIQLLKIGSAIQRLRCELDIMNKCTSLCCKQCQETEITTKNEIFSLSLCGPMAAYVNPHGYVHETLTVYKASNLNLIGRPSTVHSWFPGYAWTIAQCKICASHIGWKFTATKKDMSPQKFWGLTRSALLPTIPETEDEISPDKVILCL
T1 sequence (Q3U1J4 whole entry partner, the tested form may be a part): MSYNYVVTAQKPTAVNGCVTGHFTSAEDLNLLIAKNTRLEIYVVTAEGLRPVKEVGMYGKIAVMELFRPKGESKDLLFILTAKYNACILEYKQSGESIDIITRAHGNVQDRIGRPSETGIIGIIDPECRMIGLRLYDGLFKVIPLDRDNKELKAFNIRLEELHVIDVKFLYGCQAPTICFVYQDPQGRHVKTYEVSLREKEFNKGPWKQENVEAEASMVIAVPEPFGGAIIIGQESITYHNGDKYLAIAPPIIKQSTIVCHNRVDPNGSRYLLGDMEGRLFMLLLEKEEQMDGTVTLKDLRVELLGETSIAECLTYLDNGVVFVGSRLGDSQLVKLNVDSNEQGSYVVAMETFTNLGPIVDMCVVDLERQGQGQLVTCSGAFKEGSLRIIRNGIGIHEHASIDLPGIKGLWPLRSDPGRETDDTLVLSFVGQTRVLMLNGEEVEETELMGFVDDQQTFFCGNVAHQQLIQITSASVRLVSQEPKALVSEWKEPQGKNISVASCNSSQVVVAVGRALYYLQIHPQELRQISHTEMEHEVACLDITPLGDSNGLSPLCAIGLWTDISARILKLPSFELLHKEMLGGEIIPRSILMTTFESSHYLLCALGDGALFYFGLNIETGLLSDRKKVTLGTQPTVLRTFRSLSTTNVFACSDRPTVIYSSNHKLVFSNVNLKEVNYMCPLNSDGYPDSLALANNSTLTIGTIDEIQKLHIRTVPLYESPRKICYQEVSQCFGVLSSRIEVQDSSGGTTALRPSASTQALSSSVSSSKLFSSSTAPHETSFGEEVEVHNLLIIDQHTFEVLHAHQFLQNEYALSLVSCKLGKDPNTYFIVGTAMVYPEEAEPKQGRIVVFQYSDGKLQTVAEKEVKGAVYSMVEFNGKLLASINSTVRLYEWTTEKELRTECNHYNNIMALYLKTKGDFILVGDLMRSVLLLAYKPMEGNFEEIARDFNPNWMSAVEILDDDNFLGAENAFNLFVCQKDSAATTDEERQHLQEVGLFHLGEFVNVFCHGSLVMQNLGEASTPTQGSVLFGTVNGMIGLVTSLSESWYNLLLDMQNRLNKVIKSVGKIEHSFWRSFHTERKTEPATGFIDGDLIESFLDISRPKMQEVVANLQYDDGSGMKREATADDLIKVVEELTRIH

Structure (SMILES)	Condensate formation of mutant ER proteins with MED1 [1]	MED1 condensates at Nanog (OCT4 (FKBP-tagged) [2])	MED1 protein levels (OCT4 (FKBP-tagged) [3])	OCT4 protein levels (OCT4 (FKBP-tagged) [3])
C[C@]12CC[C@@H]3c4ccc(O)cc4CC[C@H]3[C@@H]1CC[C@@H]2O [estrogen, B-Estradiol]	estrogen-independent			
CC[C@H](C(=O)N1CCCC[C@H]1C(=O)O[C@H](CCc1ccc(OC)c(OC)c1)c1ccccc1OCC(=O)NCCCCCCCCNc1ccc2c(c1)C(=O)N(C1CCC(=O)NC1=O)C2=O)c1cc(OC)c(OC)c(OC)c1 (some centres unmarked) [dTag]		reduction in MED1 condensates at Nanog	did not affect MED1 levels	reduced OCT4 protein levels
CC/C(=C(\c1ccccc1)c1ccc(OCCN(C)C)cc1)c1ccccc1 [tamoxifen]	tamoxifen-insensitive			

Reference: patent publication US20220120736A1, “METHODS AND ASSAYS FOR MODULATING GENE TRANSCRIPTION BY MODULATING CONDENSATES” (Whitehead Institute for Biomedical Research, priority 2018, published 2022)
